Laboratory results from PubChem BioAssay AID1963852 (Molecular Pharmacology Branch, DTP, NCI, 2024).
Where “and” joins values, the source holds several entries; their conditions need not be identical. Equal values may be shown once.

System: 282377-053-R-J1-PDC complex spheroid viability
Test: Anticancer human tumor 282377-053-R-J1-PDC patient-derived colon adenocarcinoma cell line growth inhibition [POLQ]
Conditions: for viability, T/C: stronger effect = lower value; active means viability on the fitted dose curve at most 10% of control; inactive means the rest
Protocol: Multicellular complex tumor spheroid response to Polymerase (POL) inhibitors (novobiocin, ART-558, RP6685) in combination with a variety of drugs and investigational agents in selected tumor cell lines
The POL inhibitors (novobiocin, ART-558, and RP6685) were evaluated both individually and in combination with standard of care and investigational anticancer small molecules within a complex spheroid model of solid tumors. . Complex spheroids include a stromal component modeled by human endothelial cells (HUVEC) and fibroblasts modeled by human mesenchymal stem cells (MSCs). The concentration ranges selected for each drug and investigational agent were based upon clinically achievable concentrations if the clinical Cmax of the agent was known.
Compounds. The drugs and investigational agents: novobiocin (NSC847541), ART-558 (NSC835418), RP-6685 (NSC848927), peposertib (NSC802822), ceralasertib (NSC780249), elimusertib (NSC800525), camonsertib (NSC841442), AZD-1390 (NSC803789), olaparib (NSC753686), talazoparib (NSC767125), rucaparib (NSC756644), sotorasib (NSC818433), MRTX-1133 (NSC836407), SN-38 (NSC673596), topotecan (NSC609699), epotoside (NSC141540), doxorubicin (NSC123127), gemcitabine (NSC613327), 5-fluorouracil (NSC19893), paclitaxel (NSC125973), vemurafenib (NSC761431), MSA-2 (NSC828583), SN-011 (NSC837082), adavosertib (NSC754352), prexasertib (NSC758257), carboplatin (NSC241240) and oxaliplatin (NSC266046), were obtained from the National Cancer Institute (NCI) Developmental Therapeutics Program Chemical Repository (21). The FDA-approved anticancer drug set is available from the Developmental Therapeutics Program at https://dtp.cancer.gov/organization/dscb/obtaining/. […] The stock solutions were prepared in dimethyl sulfoxide (DMSO, Sigma-Aldrich, St. Louis, MO, cat. D2650), except for the platinum compounds which were prepared in saline (Quality Biological, Gaithersburg, MD, cat. 114-055-101), at 800-fold the tested concentration and stored at -70 degrees C prior to their use. All drugs and investigational agents were tested over a range starting from a high concentration at or near the clinical Cmax and decreasing in half-log increments. If the clinical Cmax for an agent had not been determined, the highest concentration tested was 10 microM, except for SN-38, which was tested at a high concentration of 1 microM.
Cell Culture. All cells were maintained in an incubator at 37 degrees C and 5% CO2 with 95% humidity. The PDC lines were cultured according to standard operating procedures established by the NCI PDMR (https://pdmr.cancer.gov). Table 3 of the manuscript, lists the cell lines along with the number of the three cell types plated to form the mct-spheroids and media for tumor cell growth. After thawing, all PDC lines, except 997537-175-T-J1-PDC and 415267-285-R-J2-PDC, were cultured in Matrigel-coated flasks prepared with a working solution of 1X Ham's F-12 nutrient mix, without supplementation (Thermo Fisher Scientific, cat. 11765054), 100 U/mL penicillin-streptomycin (Thermo Fisher Scientific, cat. 15140122), and 2.5% Matrigel (Corning Inc., Corning, NY, cat. 354248) for the first three passages. The two PDC lines 997537-175-T-J1-PDC and 415267-285-R-J2-PDC were cultured on uncoated flasks. The 857933-349-R-J2-PDC line was cultured in 6C/Colon 1B media containing advanced DMEM/F-12 (Thermo Fisher Scientific, cat. 12634028), 10 mM HEPES (Thermo Fisher Scientific, cat. 15630080), 1X GlutaMAX supplement (Thermo Fisher Scientific, cat. 35050061), 0.1 mg/mL primocin (InvivoGen, San Diego, CA, cat. ant-pm-2), 10% defined fetal bovine serum, heat inactivated (HyClone Laboratories Inc., Logan, UT, cat. SH30070.03HI), 50% L-WRN conditioned media (ATCC, cat. CRL-3276), 1.25 mM N-Acetyl-L-cysteine (Sigma-Aldrich, cat. A9165), 10 mM nicotinamide (Sigma-Aldrich, cat. N0636), 1X B-27 supplement (Thermo Fisher Scientific, cat. 17504044), 1X N-2 supplement (Thermo Fisher Scientific, cat. […]

[1] = curve of first compound, second compound 0.0316 µM
[2] = curve of first compound, second compound 0.1 µM
[3] = curve of first compound, second compound 0.316 µM
[4] = curve of first compound, second compound 1 µM
[5] = curve of first compound, second compound 3.16 µM
[6] = curve of first compound, second compound 10 µM
[7] = second compound 0.0316 µM, first compound 0.0316 µM
[8] = second compound 0.0316 µM, first compound 0.1 µM
[9] = second compound 0.0316 µM, first compound 0.316 µM
[10] = second compound 0.0316 µM, first compound 1 µM
[11] = second compound 0.1 µM, first compound 0.0316 µM
[12] = second compound 0.1 µM, first compound 0.1 µM
[13] = second compound 0.1 µM, first compound 0.316 µM
[14] = second compound 0.1 µM, first compound 1 µM
[15] = second compound 0.316 µM, first compound 0.0316 µM
[16] = second compound 0.316 µM, first compound 0.1 µM
[17] = second compound 0.316 µM, first compound 0.316 µM
[18] = second compound 0.316 µM, first compound 1 µM
[19] = second compound 1 µM, first compound 0.0316 µM
[20] = second compound 1 µM, first compound 0.1 µM
[21] = second compound 1 µM, first compound 0.316 µM
[22] = second compound 1 µM, first compound 1 µM
[23] = second compound 3.16 µM, first compound 0.0316 µM
[24] = second compound 3.16 µM, first compound 0.1 µM
[25] = second compound 3.16 µM, first compound 0.316 µM
[26] = second compound 3.16 µM, first compound 1 µM
[27] = second compound 10 µM, first compound 0.0316 µM
[28] = second compound 10 µM, first compound 0.1 µM
[29] = second compound 10 µM, first compound 0.316 µM
[30] = second compound 10 µM, first compound 1 µM
[31] = second compound 0.0316 µM, first compound 0.00316 µM
[32] = second compound 0.0316 µM, first compound 0.01 µM
[33] = second compound 0.1 µM, first compound 0.00316 µM
[34] = second compound 0.1 µM, first compound 0.01 µM
[35] = second compound 0.316 µM, first compound 0.00316 µM
[36] = second compound 0.316 µM, first compound 0.01 µM
[37] = second compound 1 µM, first compound 0.00316 µM
[38] = second compound 1 µM, first compound 0.01 µM
[39] = second compound 3.16 µM, first compound 0.00316 µM
[40] = second compound 3.16 µM, first compound 0.01 µM
[41] = second compound 10 µM, first compound 0.00316 µM
[42] = second compound 10 µM, first compound 0.01 µM
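Further: spheroids exposed to compounds for seven days.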

CCc1cc2c(N3CCc4c(cc(Cn5ccnc5)cc4-c4cn(C)nc4C(F)(F)F)C3=O)ccnc2c(OC)n1 + COC1C(OC(N)=O)C(O)C(Oc2ccc3c(O)c(NC(=O)c4ccc(O)c(CC=C(C)C)c4)c(=O)oc3c2C)OC1(C)C
inactive: viability, T/C [7] 114% | viability, T/C [8] 132% | viability, T/C [9] 139% | viability, T/C [10] 144% | viability, T/C (second compound 0.0316 µM, first compound 3.16 µM) 135% | viability, T/C (second compound 0.0316 µM, first compound 10 µM) 72.3% | viability, T/C [11] 120% | viability, T/C [12] 153% | viability, T/C [13] 140% | viability, T/C [14] 146% | viability, T/C (second compound 0.1 µM, first compound 3.16 µM) 118% | viability, T/C (second compound 0.1 µM, first compound 10 µM) 90.6% | viability, T/C [15] 147% | viability, T/C [16] 110% | viability, T/C [17] 132% | viability, T/C [18] 130% | viability, T/C (second compound 0.316 µM, first compound 3.16 µM) 127% | viability, T/C (second compound 0.316 µM, first compound 10 µM) 78% | viability, T/C [19] 124% | viability, T/C [20] 109% | viability, T/C [21] 123% | viability, T/C [22] 134% | viability, T/C (second compound 1 µM, first compound 3.16 µM) 132% | viability, T/C (second compound 1 µM, first compound 10 µM) 95.4% | viability, T/C [23] 124% | viability, T/C [24] 124% | viability, T/C [25] 150% | viability, T/C [26] 145% | viability, T/C (second compound 3.16 µM, first compound 3.16 µM) 118% | viability, T/C (second compound 3.16 µM, first compound 10 µM) 86.9% | viability, T/C [27] 115% | viability, T/C [28] 127% | viability, T/C [29] 144% | viability, T/C [30] 161% | viability, T/C (second compound 10 µM, first compound 3.16 µM) 113% | viability, T/C (second compound 10 µM, first compound 10 µM) 92.9%
> 10000 nM: IC50 [1] | IC50 [2] | IC50 [3] | IC50 [4] | IC50 [5] | IC50 [6]

O=C(c1cc(Cc2n[nH]c(=O)c3ccccc23)ccc1F)N1CCN(C(=O)C2CC2)CC1
inactive: viability, T/C (compound 0.0316 µM) 96.2% and 95.6% and 96.1% | viability, T/C (compound 0.1 µM) 94.5% and 97.4% and 107% | viability, T/C (compound 0.316 µM) 118% and 105% and 95.8% | viability, T/C (compound 1 µM) 122% and 110% and 114% | viability, T/C (compound 3.16 µM) 100% and 97.5% and 110% | viability, T/C (compound 10 µM) 95.8% and 105% and 110%
> 10000 nM: IC50 (curve of compound)

C=CCn1c(=O)c2cnc(Nc3ccc(N4CCN(C)CC4)cc3)nc2n1-c1cccc(C(C)(C)O)n1 + Nc1ccc(C#CCN(C(=O)Cc2ncc(C(F)(F)F)cc2C(F)(F)F)c2ccc(F)cc2)nn1
inactive: viability, T/C [31] 122% | viability, T/C [32] 102% | viability, T/C [7] 99.1% | viability, T/C [8] 98.3% | viability, T/C [9] 81.8% | viability, T/C [10] 69% | viability, T/C [33] 96.3% | viability, T/C [34] 110% | viability, T/C [11] 89.4% | viability, T/C [12] 107% | viability, T/C [13] 90.7% | viability, T/C [14] 70.1% | viability, T/C [35] 102% | viability, T/C [36] 96.9% | viability, T/C [15] 99.2% | viability, T/C [16] 86.1% | viability, T/C [17] 91.8% | viability, T/C [18] 61.4% | viability, T/C [37] 106% | viability, T/C [38] 91.8% | viability, T/C [19] 79.9% | viability, T/C [20] 86.2% | viability, T/C [21] 93.8% | viability, T/C [22] 67.6% | viability, T/C [39] 117% | viability, T/C [40] 110% | viability, T/C [23] 93.8% | viability, T/C [24] 102% | viability, T/C [25] 85.3% | viability, T/C [26] 84.6% | viability, T/C [41] 117% | viability, T/C [42] 100% | viability, T/C [27] 96.7% | viability, T/C [28] 94.7% | viability, T/C [29] 100% | viability, T/C [30] 78.2%
> 1000 nM: IC50 [1] | IC50 [2] | IC50 [3] | IC50 [4] | IC50 [5] | IC50 [6]

CC[C@@]1(O)C(=O)OCc2c1cc1n(c2=O)Cc2cc3c(CN(C)C)c(O)ccc3nc2-1 + Nc1ccc(C#CCN(C(=O)Cc2ncc(C(F)(F)F)cc2C(F)(F)F)c2ccc(F)cc2)nn1
> 100 nM: IC50 [1] | IC50 [2] | IC50 [3] | IC50 [4] | IC50 [5] | IC50 [6]
inactive: viability, T/C (second compound 0.0316 µM, first compound 0.000316 µM) 117% | viability, T/C (second compound 0.0316 µM, first compound 0.001 µM) 90.7% | viability, T/C [31] 124% | viability, T/C [32] 103% | viability, T/C [7] 96.5% | viability, T/C [8] 99.8% | viability, T/C (second compound 0.1 µM, first compound 0.000316 µM) 91.1% | viability, T/C (second compound 0.1 µM, first compound 0.001 µM) 99.2% | viability, T/C [33] 91% | viability, T/C [34] 94.7% | viability, T/C [11] 103% | viability, T/C [12] 102% | viability, T/C (second compound 0.316 µM, first compound 0.000316 µM) 97.1% | viability, T/C (second compound 0.316 µM, first compound 0.001 µM) 94.8% | viability, T/C [35] 91.7% | viability, T/C [36] 79.3% | viability, T/C [15] 101% | viability, T/C [16] 101% | viability, T/C (second compound 1 µM, first compound 0.000316 µM) 95.2% | viability, T/C (second compound 1 µM, first compound 0.001 µM) 88.9% | viability, T/C [37] 83% | viability, T/C [38] 85% | viability, T/C [19] 102% | viability, T/C [20] 91.1% | viability, T/C (second compound 3.16 µM, first compound 0.000316 µM) 95.8% | viability, T/C (second compound 3.16 µM, first compound 0.001 µM) 95.7% | viability, T/C [39] 94.2% | viability, T/C [40] 95.4% | viability, T/C [23] 103% | viability, T/C [24] 91.8% | viability, T/C (second compound 10 µM, first compound 0.000316 µM) 111% | viability, T/C (second compound 10 µM, first compound 0.001 µM) 93.7% | viability, T/C [41] 124% | viability, T/C [42] 112% | viability, T/C [27] 112% | viability, T/C [28] 127%
